Experimental data: PMC6151488, “Structure, Absolute Configuration, and Antiproliferative Activity of Abietane and Icetexane Diterpenoids from Salvia ballotiflora” (Molecules : A Journal of Synthetic Chemistry and Natural …, 2017)
“And” between values parts separate entries of the source, which are not always exact repeats. Identical values can stand only once. Like-named read-outs stand apart in the source and are kept apart here.

Assays:
[1] = system: PC-3 (human prostate cancer); assay: Sulforhodamine B (SRB) cytotoxicity assay, PC-3; format: cell-based
Source text: (§1) The natural products were screened in vitro against the following human cancer cell lines: human mammary adenocarcinoma (MCF-7), human chronic myelogenous leukemia (K562), human glioblastoma (U251), human lung adenocarcinoma (SKLU-1), human colon cancer (HCT-15), human prostate cancer (PC-3), healthy gingival human fibroblasts (FGH), and normal monkey kidney cell lines, which were supplied by the National Cancer Institute (NCI, USA) and American Type Culture Collection (ATTC). The human tumor cytotoxicity was determined using the protein-binding dye sulforhodamine B (SRB) in a microculture assay to measure cell growth, as described in the protocol established by the NCI [30]. The cell lines were cultured in RPMI-1640 medium supplemented with 10% fetal bovine serum, 2 mM L-glutamine, 10,000 units/mL penicillin G sodium, 10,000 μg/mL streptomycin sulfate, and 25 μg/mL amphotericin B (Gibco), and 1% non-essential amino acids (Gibco). They were maintained at 37 °C in a humidified atmosphere with 5% CO2. The viability of the cells used in the experiments exceeded 95%, as determined with trypan blue.
(§2) Cytotoxicity after treatment of the tumors cells and normal cells with the test compounds were determined using the protein-binding dye sulforhodamine B (SRB) in a microculture assay to measure cell growth. The cells were removed from the tissue culture flasks by treatment with trypsin, and diluted with fresh media. Of these cell suspensions, 100 μL containing 5000–10,000 cells per well were pipetted into 96-well microtiter plates (Costar) and the material was incubated at 37 °C for 24 h in a 5% CO2 atmosphere. Subsequently, 100 μL of a solution of the compound obtained by diluting the stocks were added to each well. The cultures were exposed to the compound for 48 h. After the incubation period, cells were fixed to the plastic substratum by the addition of 50 μL of cold 50% aqueous trichloroacetic acid. The plates were incubated at 4 °C for 1 h, washed with tap water, and air-dried. The trichloroacetic-acid-fixed cells were stained by the addition of 0.4% SRB. The free SRB solution was then removed by washing with 1% aqueous acetic-acid. The plates were air-dried, and the bound dye was dissolved by the addition of 10 mM unbuffered Tris base (100 μL). The plates were placed on a shaker for 10 min, and the absorption was determined at 515 nm using an ELISA plate reader (Bio-Tex Instruments).

[2] = system: SKLU-1 (human lung adenocarcinoma); assay: Sulforhodamine B (SRB) cytotoxicity assay, SKLU-1; format: cell-based; conditions: for IC50: SRB assay, 48 h exposure, mean ± SD, read-out: IC50 antiproliferative activity, SKLU-1; for inhibition at 50 µM: primary screening at 50.0 μM, NC = No cytotoxic
Source text: as §1, §2

[3] = system: COS-7 normal monkey kidney; assay: Sulforhodamine B (SRB) cytotoxicity assay, COS-7 normal cell line; format: cell-based; conditions: Primates, mean ± SD
Source text: as §1
as §2, with “The plates were incubated at 4 °C for 1 h, washed with tap water, and air-dried. The trichloroacetic-acid-fixed cells were stained by the addition of 0.4% SRB. The free SRB solution was then removed by washing with 1% aqueous acetic-acid. The plates were air-dried, and the bound dye was dissolved by the addition of 10 mM unbuffered Tris base (100 μL).” left out

[4] = system: U251 (human glioblastoma); assay: Sulforhodamine B (SRB) cytotoxicity assay, U251; format: cell-based
Source text: as §1, with “CO2.” for “CO2. The viability of the cells used in the experiments exceeded 95%, as determined with trypan blue.”
as §2

[5] = system: MCF-7 (human mammary adenocarcinoma); assay: Sulforhodamine B (SRB) cytotoxicity assay, MCF-7; format: cell-based; conditions: for inhibition at 50 µM: primary screening at 50.0 μM
Source text: as §1, §2

[6] = system: HCT-15 (human colon cancer); assay: Sulforhodamine B (SRB) cytotoxicity assay, HCT-15; format: cell-based
Source text: as §1, §2

[7] = system: K562 (human chronic myelogenous leukemia); assay: Sulforhodamine B (SRB) cytotoxicity assay, K562; format: cell-based; conditions: Homo sapiens, K562
Source text: as §1, §2

[8] = system: six human cancer cell lines (U251, PC-3, K562, HCT-15, MCF-7, SKLU-1) and FGH; assay: SRB primary screening, whole panel (result in words); format: cell-based; conditions: primary screening at 50.0 μM, complete panel
Experimental: The same biological activity was also recently described for icetexane-derivatives isolated from Premna and Amentotaxus species. […] These facts prompted us to assay diterpenoids 3, 4, 6–8 and 10 for antiproliferative activity using six human cancer cell lines (U251, PC-3, K562, HCT-15, MCF-7, and SKLU-1), and a primary culture of healthy gingival human fibroblasts (FGH) at 1.0 or 50.0 μM (when cytotoxicity at 50.0 μM results were too high). […] Overall, the antiproliferative activity determined for 7 was lower than that observed for 6.
as §1
Cytotoxicity after treatment of the tumors cells and normal cells with the test compounds were determined using the protein-binding dye sulforhodamine B (SRB) in a microculture assay to measure cell growth. […] The plates were placed on a shaker for 10 min, and the absorption was determined at 515 nm using an ELISA plate reader (Bio-Tex Instruments).

[9] = Scavenging activity on free radical DPPH; conditions: 30 min, 37 °C; for IC50: DPPH 100 μM, mean ± SEM; for DPPH inhibitory effect (%): at 100 μM
Experimental: Free radical scavenging activity was measured using an adapted method of Mellors and Tappel. The test was carried out in 96-well microplates. A 50-μL aliquot of the solution of the test compound was mixed with 150 μL of an ethanol solution of DPPH (final concentration 100 μM). The mixture was incubated at 37 °C for 30 min, and the absorbance was then measured at 515 nm using a BioTek microplate reader SYNERGY HT. The percent inhibition was determined by comparison with a 100-μM DPPH ethanol blank solution.

[10] = system: TPA-induced ear edema; assay: TPA-induced ear edema test in mice; format: in vivo; conditions: mice CD-1, 1.0 μmol ear^-1 topical, 4 h after TPA, mean ± SEM; for Inhibition of Edema (%): NA = Non-active
Experimental: Male CD-1 mice weighing 25–30 g were maintained under standard laboratory conditions in the animal house (temperature 24 ± 2 °C) in a 12/12 h light/dark cycle, fed a laboratory diet and water ad libitum, following the Mexican official norm NOM-062-Z00-1999.
The TPA-induced ear edema assay in mice was performed as reported in reference. A solution of TPA (2.5 μg) in ethanol (10 μL) was applied topically to both faces (5 μL each ear) of the right ear of the mice, 10 min after solutions of the test substances in their respective solvents were applied (10 μL each face). The left ear received ethanol (10 μL) first, followed by 20 μL of the respective solvent. The mice were killed with CO2 four hours later. A 7-mm diameter plug was removed from each ear. The swelling was assessed as the difference in weight between the left and the right ear. Control animals received the correspondent solvent in each case. Edema inhibition (EI %) was calculated by the equation EI % = 100 − (B × 100/A), where A is the edema induced by TPA alone and B is the edema induced by TPA plus the sample. Indomethacin and celecoxib were used as reference compounds.

[11] = Homo sapiens, SK-LU-1, mean n = 2, read-out: Antiproliferative activity (%), SKLU-1
[12] = Homo sapiens, MCF7, mean n = 2, NC = No cytotoxic, read-out: Antiproliferative activity (%), MCF-7
[13] = primary screening at 1.0 μM, mean n = 2

COc1cccc2c1C(=O)c1c(O)c3c(c(O)c1C2=O)C[C@@](O)(C(=O)CO)C[C@@H]3O[C@H]1C[C@H](N)[C@H](O)[C@H](C)O1 [Adriamicyn, adriamycin, reference compound]
inhibition at 0.5 µM ([1]; positive control at 0.5 μM, mean n = 2, read-out: Antiproliferative activity (%), PC-3): 85.2%
IC50 ([2]; Homo sapiens, SK-LU-1, 48 h): 50 ± 3 nM
inhibition at 0.5 µM ([2]; Homo sapiens, SK-LU-1, positive control at 0.5 μM, mean n = 2, read-out: Antiproliferative activity (%), SKLU-1): 90%
IC50 [3]: 250 ± 9 nM
IC50 ([4]; Homo sapiens, U-251, 48 h, SRB assay, 48 h exposure, mean ± SD, read-out: IC50 antiproliferative activity, U251): 80 ± 3 nM
inhibition at 0.5 µM ([4]; Homo sapiens, U-251, positive control at 0.5 μM, mean n = 2, read-out: Antiproliferative activity (%), U251): 96%
IC50 ([5]; Homo sapiens, MCF7, SRB assay, 48 h exposure, mean ± SD, read-out: IC50 antiproliferative activity, MCF-7): 230 ± 20 nM
inhibition at 0.5 µM ([5]; Homo sapiens, MCF7, positive control at 0.5 μM, mean n = 2, read-out: Antiproliferative activity (%), MCF-7): 99.1%
inhibition at 0.5 µM ([6]; positive control at 0.5 μM, mean n = 2, read-out: Antiproliferative activity (%), HCT-15): 86.9%
IC50 ([7]; SRB assay, 48 h exposure, mean ± SD, read-out: IC50 antiproliferative activity, K562): 200 ± 20 nM
inhibition at 0.5 µM ([7]; positive control at 0.5 μM, mean n = 2, read-out: Antiproliferative activity (%), K562): 100%

CC(C)c1c(O)c(O)c2c(c1O)C(=O)CC1C3(CCCC1(C)C(=O)O3)C2 (centres unmarked) [Compound 4, 6,7,11,14-Tetrahydro-7-oxoicetexone]
inhibition at 50 µM ([1]; primary screening at 50.0 μM, mean n = 2, NC = No cytotoxic, read-out: Antiproliferative activity (%), PC-3): 80.3%
inhibition at 50 µM [2, 11]: 96.9%
Toxicity to the complete panel (in words) [8]: very toxic
melting point: 130 to 135 °C
inhibition at 50 µM ([4]; Homo sapiens, U-251, primary screening at 50.0 μM, mean n = 2, NC = No cytotoxic, read-out: Antiproliferative activity (%), U251): 100%
inhibition at 50 µM [5, 12]: 99%
IC50 [9]: 98400 ± 3300 nM
DPPH inhibitory effect (%) [9]: 64.5%
inhibition at 50 µM ([6]; primary screening at 50.0 μM, mean n = 2, NC = No cytotoxic, read-out: Antiproliferative activity (%), HCT-15): 76.7%
inhibition at 50 µM ([7]; primary screening at 50.0 μM, mean n = 2, NC = No cytotoxic, read-out: Antiproliferative activity (%), K562): 100%

CC(C)C1=C(O)C(=O)C2=CC3=CCCC4(C)C(=O)OC(C=C2C1=O)C34 (centres unmarked) [Compound 6, Anastomosine]
inhibition at 1 µM ([1]; primary screening at 1.0 μM, mean n = 2, read-out: Antiproliferative activity (%), PC-3): 82.3%
IC50 ([2]; Homo sapiens, SK-LU-1, 48 h): 820 ± 60 nM
inhibition at 1 µM ([2]; Homo sapiens, SK-LU-1, primary screening at 1.0 μM, mean n = 2, read-out: Antiproliferative activity (%), SKLU-1): 100%
IC50 [2]: 460 ± 50 nM
Antiproliferative activity (%), SKLU-1 [2, 13]: very toxic
SI (selectivity index), SKLU-1 ([2]; quotient of IC50 of COS-7 / IC50 of SKLU-1): 1.3
melting point: 220 to 224 °C
IC50 [3]: 610 ± 7 nM
inhibition at 1 µM ([4]; Homo sapiens, U-251, primary screening at 1.0 μM, mean n = 2, read-out: Antiproliferative activity (%), U251): 98.4%
Antiproliferative activity (%), U251 [4, 13]: very toxic
SI (selectivity index), U251 ([4]; quotient of IC50 of COS-7 / IC50 of U251): 2.3
inhibition at 1 µM ([5]; Homo sapiens, MCF7, primary screening at 1.0 μM, mean n = 2, NC = No cytotoxic, read-out: Antiproliferative activity (%), MCF-7): 51.3%
Antiproliferative activity (%), MCF-7 ([5]; primary screening at 1.0 μM, mean n = 2, NC = No cytotoxic): moderately toxic
DPPH inhibitory effect (%) [9]: 8.2%
inhibition at 1 µM ([6]; primary screening at 1.0 μM, mean n = 2, read-out: Antiproliferative activity (%), HCT-15): 85.6%
Edema [10]: 15.97 ± 0.61 mg
Inhibition of Edema (%) [10]: non-active
inhibition at 1 µM ([7]; primary screening at 1.0 μM, mean n = 2, read-out: Antiproliferative activity (%), K562): 76.4%

COc1ccc2c(c1)c(CC(=O)O)c(C)n2C(=O)c1ccc(Cl)cc1 [Indometacin, Indomethacin, reference compound]
Edema [10]: 2.88 ± 0.73 mg
Inhibition of Edema (%) [10]: 78.76 ± 7.68 %
Inhibition of Edema (%) ([10]; listed as indomethacine): 78.8 ± 7.7%

Cc1ccc(-c2cc(C(F)(F)F)nn2-c2ccc(S(N)(=O)=O)cc2)cc1 [Celecoxib, celecoxib, reference compound]
Edema [10]: 6.94 ± 1.56 mg
Inhibition of Edema (%) [10]: 54.34 ± 10.28%
Inhibition of Edema (%) ([10]; listed as celecoxib): 54.3 ± 10.3%

Cc1c(C)c2c(c(C)c1O)CC[C@@](C)(CCC[C@H](C)CCC[C@H](C)CCCC(C)C)O2 [α-tocopherol, reference compound]
IC50 [9]: 31700 ± 1040 nM

O=c1c(O)c(-c2ccc(O)c(O)c2)oc2cc(O)cc(O)c12 [quercetin, reference compound]
IC50 [9]: 10900 ± 500 nM

CC(C)C1=C(O)C(=O)C2=C(C1=O)C(O)CC1C3(C)CCCC21C(O)OC3 (centres unmarked) [Compound 10, conacytone]
inhibition at 50 µM [2, 11]: 11.8%
Toxicity to the complete panel (in words) [8]: no toxicity
inhibition at 50 µM [5, 12]: 14.7%
DPPH inhibitory effect (%) [9]: 4.8%
Edema [10]: 11.77 ± 047 mg
Inhibition of Edema (%) [10]: 25.4 ± 3.0% and 25.37 ± 2.98 %
